Legend:
Sirt1 = Sirt1 protein expression Western blot in myotubes; format: cell-based, mouse; conditions: C2C12 myotubes, FIG. 12
Description: (§1) Cell Culture: C2C12 and 3T3-L1 preadipocytes (American Type Culture Collection) were plated at a density of 8000 cells/cm^2 (10 cm^2 dish) and grown in Dulbecco's modified eagle's medium (DMEM) containing 10% fetal bovine serum (FBS), and antibiotics (growth medium) at 37° C. in 5% CO2. Confluent 3T3-L1 preadipocytes were induced to differentiate with a standard differentiation medium consisting of DMEM medium supplemented with 10% FBS, 250 nM dexamethasone, 0.5 mM 3-Isobutyl-1-methylxanthine (IBMX) and 1% penicillin-streptomycin. Preadipocytes were maintained in this differentiation medium for 3 days and subsequently cultured in growth medium. Cultures were re-fed every 2-3 days to allow >90% cells to reach fully differentiation before conducting chemical treatment. […]
Western blot: The Phospho-AMPKα (Thr172)- and Sirt1 (mouse specific)-antibody was obtained from Cell Signaling (Danvers, Mass.). […] Protein was measured by BCA kit (Thermo Scientific). […] Visualization and chemiluminescent detection was conducted using BioRad ChemiDoc instrumentation and software (Bio-Rad Laboratories, Hercules, Calif.) and band intensity was assessed using Image Lab 4.0 (Bio-Rad Laboratories, Hercules, Calif.), with correction for background and loading controls. P-AMPK was detected at 61-66 kDA and Sirt1 was detected at 104-115 kDA.

3T3-L1 adipocytes [1] = assay: Glucose utilization (extracellular acidification) in adipocytes; format: cell-based; conditions: FIG. 10
Description: as §1
(§2) Glucose Utilization: In the absence of a fatty acid source and oxidative metabolism, glycolysis and subsequent lactate production results in extracellular acidification, which was also measured using a Seahorse Bioscience XF24 analyzer. […] Data for each sample were normalized to the pre-glucose injection baseline for that sample and expressed as % change from that baseline. The area under of the curve of extracellular acidification change from baseline for each sample was the calculated and used for subsequent analysis.

C2C12 myotubes [2] = assay: Glucose utilization (extracellular acidification) in myotubes; format: cell-based; conditions: FIG. 9
Description: as §1, §2

C2C12 myotubes [3] = assay: Fatty acid oxidation (O2 consumption response to palmitate) in myotubes; format: cell-based; conditions: FIG. 4/5, 24 hours, leucine, valine, isoleucine 0.5 mM, B6 100 nM as pyridoxal phosphate, vs control
Description: Cell Culture: C2C12 and 3T3-L1 preadipocytes (American Type Culture Collection) were plated at a density of 8000 cells/cm^2 (10 cm^2 dish) and grown in Dulbecco's modified eagle's medium (DMEM) containing 10% fetal bovine serum (FBS), and antibiotics (growth medium) at 37° C. in 5% CO2. Confluent 3T3-L1 preadipocytes were induced to differentiate with a standard differentiation medium consisting of DMEM medium supplemented with 10% FBS, 250 nM dexamethasone, 0.5 mM 3-Isobutyl-1-methylxanthine (IBMX) and 1% penicillin-streptomycin. Preadipocytes were maintained in this differentiation medium for 3 days and subsequently cultured in growth medium. Cultures were re-fed every 2-3 days to allow >90% cells to reach fully differentiation before conducting chemical treatment. For differentiation of C2C12 cells, cells were grown to 100% confluence, transferred to differentiation medium (DMEM with 2% horse serum and 1% penicillin-streptomycin), and fed with fresh differentiation medium every day until myotubes were fully formed (3 days). Fatty acid oxidation: Cellular oxygen consumption was measured using a Seahorse Bioscience XF24 analyzer (Seahorse Bioscience, Billerica, Mass.) in 24-well plates at 37° C., as described by Feige et al (1) with slight modifications. Cells were seeded at 40,000 cells per well, differentiated as described above, treated for 24 hours with the indicated treatments, washed twice with non-buffered carbonate-free pH 7.4 low glucose (2.5 mM) DMEM containing carnitine (0.5 mM), equilibrated with 550 μL of the same media in a non-CO2 incubator for 45 minutes, and then inserted into the instrument for 15 minutes of further equilibration, followed by O2 consumption measurement. Three successive baseline measurements at five-minute intervals were taken prior to injection of palmitate (200 μM final concentration). Four successive 5-minute measurements of O2 consumption were then conducted, followed by 10 minute re-equilibration and another 3-4 5-minute measurements. This measurement pattern was then repeated over a 4-6 hour period. Data for each sample were normalized to the pre-palmitate injection baseline for that sample and expressed as % change from that baseline. […] The area under of the curve of O2 consumption change from baseline for each sample was then calculated and used for subsequent analysis.

3T3-L1 adipocytes [4] = assay: Fatty acid oxidation (O2 consumption response to palmitate) in adipocytes; format: cell-based; conditions: FIG. 8, % change from control
Description: as §1
Fatty acid oxidation: Cellular oxygen consumption was measured using a Seahorse Bioscience XF24 analyzer (Seahorse Bioscience, Billerica, Mass.) in 24-well plates at 37° C., as described by Feige et al (1) with slight modifications. […] Data for each sample were normalized to the pre-palmitate injection baseline for that sample and expressed as % change from that baseline. […] The area under of the curve of O2 consumption change from baseline for each sample was then calculated and used for subsequent analysis.

Phospho-AMPKα (Thr172) = Phospho-AMPKα (Thr172) Western blot in myotubes; format: cell-based; conditions: C2C12 myotubes, FIG. 11
Description: Cell Culture: C2C12 and 3T3-L1 preadipocytes (American Type Culture Collection) were plated at a density of 8000 cells/cm^2 (10 cm^2 dish) and grown in Dulbecco's modified eagle's medium (DMEM) containing 10% fetal bovine serum (FBS), and antibiotics (growth medium) at 37° C. in 5% CO2. Confluent 3T3-L1 preadipocytes were induced to differentiate with a standard differentiation medium consisting of DMEM medium supplemented with 10% FBS, 250 nM dexamethasone, 0.5 mM 3-Isobutyl-1-methylxanthine (IBMX) and 1% penicillin-streptomycin. Preadipocytes were maintained in this differentiation medium for 3 days and subsequently cultured in growth medium. Cultures were re-fed every 2-3 days to allow >90% cells to reach fully differentiation before conducting chemical treatment. For differentiation of C2C12 cells, cells were grown to 100% confluence, transferred to differentiation medium (DMEM with 2% horse serum and 1% penicillin-streptomycin), and fed with fresh differentiation medium every day until myotubes were fully formed (3 days).
Western blot: The Phospho-AMPKα (Thr172)- and Sirt1 (mouse specific)-antibody was obtained from Cell Signaling (Danvers, Mass.). C2C12 myotubes were treated as indicated in results and the cellular fractions were prepared using standard methods. Protein was measured by BCA kit (Thermo Scientific). […] Visualization and chemiluminescent detection was conducted using BioRad ChemiDoc instrumentation and software (Bio-Rad Laboratories, Hercules, Calif.) and band intensity was assessed using Image Lab 4.0 (Bio-Rad Laboratories, Hercules, Calif.), with correction for background and loading controls. P-AMPK was detected at 61-66 kDA and Sirt1 was detected at 104-115 kDA.

## CC(C)C[C@H](N)C(=O)O [Leucine, leucine]
Sirt1
  Sirt1 protein levels, increase: unaffected
3T3-L1 adipocytes [1]
  increase in glucose utilization: no independent significant effect
C2C12 myotubes [2]
  increase in glucose utilization: no independent significant effect
C2C12 myotubes [3]
  increase in fatty acid oxidation: 73%
3T3-L1 adipocytes [4]
  increase in fatty acid oxidation: 181%
Phospho-AMPKα (Thr172)
  AMPK activation (Phosphorylated AMPK Thr172), increase: Neither treatment with leucine, valine, nor B6 alone exerted any significant effect
